Test results reported in patent US20230218563A1, “METHODS FOR TREATING OR PREVENTING CHRONIC KIDNEY DISEASE” (Arthrosi Therapeutics, Inc., priority 2020, published 2023).

Columns and labels:
[1] = test system: serum uric acid (sUA); assay: Phase 2a cross-over study in adults with gout, serum uric acid; format: in vivo, human; settings: for patients with sUA levels below 5 mg/dL / patients with sUA levels below 6 mg/dL: gout patients (sUA>7 mg/dL), alone or combined; for mean sUA level reached at maximum: mean baseline 8.9 mg/dL
[2] = Solubility of test articles in HBSS assay buffer; settings: all tested concentrations, highest 10 μM
Description: Before the experiment, the medium was removed and the cells were washed twice with 100 μL of HBSS without Cl^−. Uptake experiments were carried out at 37±1° C. in 50 μL of HBSS without Cl^−, pH 7.4 containing the probe substrate (20 μM uric acid) and the test article (TA) or solvent.

[3] = biological target: T1, human URAT1 uptake transporter (Homo sapiens, UniProt Q96S37); assay: Inhibition of URAT1 mediated uric acid uptake in MDCKII cells stably expressing human URAT1; format: cell-based; settings: MDCKII cells expressing human URAT1; 20 μM uric acid probe; read-out: IC50, inhibition of URAT1 mediated uric acid accumulation
T1 construct: expressed in transfected cells
T1 sequence (Q96S37 1-553): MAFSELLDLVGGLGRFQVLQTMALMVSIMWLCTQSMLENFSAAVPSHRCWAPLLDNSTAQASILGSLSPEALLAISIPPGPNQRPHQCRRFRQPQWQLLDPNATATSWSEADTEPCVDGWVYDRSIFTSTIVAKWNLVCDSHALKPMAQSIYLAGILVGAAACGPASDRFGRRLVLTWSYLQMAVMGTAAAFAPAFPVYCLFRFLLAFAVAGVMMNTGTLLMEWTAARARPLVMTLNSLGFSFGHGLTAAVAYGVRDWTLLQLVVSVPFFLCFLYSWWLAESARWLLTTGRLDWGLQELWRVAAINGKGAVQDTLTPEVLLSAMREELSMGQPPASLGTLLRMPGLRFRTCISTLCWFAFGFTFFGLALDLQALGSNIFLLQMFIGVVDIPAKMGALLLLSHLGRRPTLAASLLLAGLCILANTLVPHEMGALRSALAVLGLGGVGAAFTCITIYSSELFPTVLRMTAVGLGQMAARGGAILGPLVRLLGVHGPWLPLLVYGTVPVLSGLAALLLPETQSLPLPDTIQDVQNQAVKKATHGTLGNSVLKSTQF
Description: Uptake experiments were performed using MDCKII cells stably expressing the human URAT1 uptake transporter. Cells were cultured at 37±1° C. in an atmosphere of 95:5 air:CO2 and were plated onto standard 96-well tissue culture plates at the cell number described in Table 1.
Radiolabeled probe substrate transport was determined by measuring an aliquot (35 μL) from each well for liquid scintillation counting.

[4] = In vitro metabolism in human liver microsomes; format: in vitro ADME; settings: human liver microsomes 0.5 mg/mL, NADPH, 60 minutes, 37° C.
Description: After pre-warming the mixture at 37° C. for 5 minutes, the reaction was initiated by the addition of 1 mM of NADPH and incubated for 60 minutes at 37° C. in a shaking water bath. The reaction was terminated by the addition of 0.5 mL ice-cold acetonitrile. Time 0 incubation was also performed by adding acetonitrile before the addition of microsomes to the incubation mixture as a reference sample for each species. Following vortex and centrifugation at 15,000 g for 3 minutes at room temperature, resulting supernatant was concentrated under nitrogen flow at 33° C., until approximately 0.5 mL of sample remained. The extract was then transferred to a 1.5-mL centrifuge vial for centrifugation at 15,000 g for 3 minutes. Finally, aliquots of the supernatant were transferred to HPLC vials for HPLC-MS analyses.
MS Analysis: Mass spectral analyses were performed on an Agilent single quadruple mass spectrometer equipped with an Agilent 1100 HPLC system. The mass spectrometer was fitted with an electrospray ionization (ESI) source and operated in a negative scan mode between 400 and 500 amu: […]

[5] = test system: urine albumin-to-creatinine ratio (UACR); assay: Phase 2a study, UACR in a subject with albuminuria; format: in vivo, human; settings: one subject with albuminuria, baseline 96 mg/g; sequential 7-day periods: Compound 1 50 mg (Day 7), Compound 1 50 mg/allopurinol 300 mg (Day 14), allopurinol 300 mg (Day 21)
Excerpt: Urine samples were collected for assessment of uric acid excretion. Laboratory safety tests, vital signs, and electrocardiograms were collected throughout the study.

[6] = once daily, Compound 1 50 mg, febuxostat 40 mg, allopurinol 300 mg
[7] = gout patients, once daily, Compound 1 50 mg, febuxostat 40 mg, allopurinol 300 mg, alone (Day 7/Day 21) or combined

| SMILES | patients with sUA levels below 5 mg/dL [1, 6] | patients with sUA levels below 6 mg/dL [1, 6] | mean sUA level reached at maximum [1, 7] | reduction of mean sUA from baseline [1, 7] | solubility in HBSS buffer [2] | IC50 [3] | Parent, % MS response (parent left) [4] | UACR [5] | UACR % change from baseline [5] | sUA % change from baseline ([1]; one subject with albuminuria, sequential 7-day periods: Compound 1 50 mg (Day 7), Compound 1 50 mg/allopurinol 300 mg (Day 14), allopurinol 300 mg (Day 21)) |
| --- | --- | --- | --- | --- | --- | --- | --- | --- | --- | --- |
| Cc1nc(-c2ccc(OCC(C)C)c(C#N)c2)sc1C(=O)O [febuxostat] | 33% | 67% | 5.5 mg/dL | 38.9% | – | – | – | – | – | – |
| [2H]c1c(O)c([2H])c2oc(C(C)O)c(C(=O)c3cc(Br)c(O)c(Br)c3)c2c1[2H] (centres unmarked) [Compound 2, (3,5-dibromo-4-hydroxyphenyl)(6-hydroxy-2-(1-hydroxyethyl)benzofuran-3-yl-4,5,7-d3)methanone] | – | – | – | – | soluble | 913 nM | – | – | – | – |
| CCc1oc2ccccc2c1C(=O)c1cc(Br)c(O)c(Br)c1 [benzbromarone, reference compound] | – | – | – | – | soluble | – | 13.1% | – | – | – |
| Oc1ncnc2[nH]ncc12 [allopurinol] | 11% | 56% | 5.8 mg/dL | – | – | – | – | 55 mg/g | −42.6% | −40% |
